Source: ChEMBL document CHEMBL1201862, “PubChem BioAssay data set” (2004)
Active and inactive are the calls of the source.

How the values were obtained:
Beta-lactamase [1] = molecular target: Beta-lactamase (Salmonella choleraesuis (strain SC-B67), UniProt Q5J463); assay: Epi-absorbance-based counterscreen for selective VIM-2 inhibitors: dose response biochemical high throughput screening assay to identify inhibitors of TEM-1 serine-beta-lactamase.
Beta-lactamase [2] = molecular target: T1, Beta-lactamase (Pseudomonas aeruginosa, UniProt Q79MP6); assay: IMP-1 metallo-beta-lactamase inhibitors, dose response, selectivity assay for VIM-2 inhibitor project, biochemical, epi-absorbance (AID 1920)
T1 sequence (Q79MP6 whole entry): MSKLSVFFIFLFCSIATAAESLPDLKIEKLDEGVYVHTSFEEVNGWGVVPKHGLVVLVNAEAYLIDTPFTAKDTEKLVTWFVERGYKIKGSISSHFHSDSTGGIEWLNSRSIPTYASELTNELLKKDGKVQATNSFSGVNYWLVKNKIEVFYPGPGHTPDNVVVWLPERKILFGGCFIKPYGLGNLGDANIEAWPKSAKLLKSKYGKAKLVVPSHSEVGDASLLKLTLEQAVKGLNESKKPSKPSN

Beta Lactamase [3] = molecular target: T2, Beta Lactamase (Pseudomonas aeruginosa, UniProt Q932Y6); assay: VIM-2 metallo-beta-lactamase inhibitor potency, dose response, biochemical, epi-absorbance readout, selective inhibitors (AID 1919)
T2 sequence (Q932Y6 whole entry): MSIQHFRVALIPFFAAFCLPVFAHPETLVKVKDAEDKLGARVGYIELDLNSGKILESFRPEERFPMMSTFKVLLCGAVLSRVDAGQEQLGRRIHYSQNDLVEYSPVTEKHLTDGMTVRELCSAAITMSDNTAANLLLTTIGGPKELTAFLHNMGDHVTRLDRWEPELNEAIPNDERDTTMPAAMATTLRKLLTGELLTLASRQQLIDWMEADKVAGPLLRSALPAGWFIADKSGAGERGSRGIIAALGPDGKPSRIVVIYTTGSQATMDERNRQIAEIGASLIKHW

Beta-lactamase [4] = molecular target: T1, Beta-lactamase; assay: […] counterscreen for selective VIM-2 inhibitors: dose response biochemical high throughput screening assay to identify inhibitors of IMP-1 metallo-beta-lactamase.
Beta Lactamase [5] = molecular target: T2, Beta Lactamase; assay: VIM-2 inhibitor FRET-based artefact check, dose response, artefact control for selective VIM-2 inhibitor project, biochemical, FRET readout, CCF2 substrate (AID 1926)
[6] = molecular target: DNA dC->dU-editing enzyme APOBEC-3A (Homo sapiens, UniProt P31941); assay: APOBEC3A DNA deaminase inhibitors, dose response, biochemical (AID 504722); type: functional
Chain of DNA dC->dU-editing enzyme APOBEC-3A (P31941 whole entry): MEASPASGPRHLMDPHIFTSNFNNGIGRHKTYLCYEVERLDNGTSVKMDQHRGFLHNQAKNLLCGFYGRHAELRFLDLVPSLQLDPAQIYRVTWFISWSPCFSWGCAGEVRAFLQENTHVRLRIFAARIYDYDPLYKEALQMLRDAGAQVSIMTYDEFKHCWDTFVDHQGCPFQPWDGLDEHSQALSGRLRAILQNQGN

[7] = molecular target: DNA dC->dU-editing enzyme APOBEC-3G (Homo sapiens, UniProt Q9HC16); assay: Dose Response confirmation of small molecule APOBEC3G DNA Deaminase Inhibitors via a fluorescence-based single-stranded DNA deaminase assay. [Related pubchem assays (depositor defined):AID493012, AID493028]; type: functional
Chain of DNA dC->dU-editing enzyme APOBEC-3G (Q9HC16 whole entry): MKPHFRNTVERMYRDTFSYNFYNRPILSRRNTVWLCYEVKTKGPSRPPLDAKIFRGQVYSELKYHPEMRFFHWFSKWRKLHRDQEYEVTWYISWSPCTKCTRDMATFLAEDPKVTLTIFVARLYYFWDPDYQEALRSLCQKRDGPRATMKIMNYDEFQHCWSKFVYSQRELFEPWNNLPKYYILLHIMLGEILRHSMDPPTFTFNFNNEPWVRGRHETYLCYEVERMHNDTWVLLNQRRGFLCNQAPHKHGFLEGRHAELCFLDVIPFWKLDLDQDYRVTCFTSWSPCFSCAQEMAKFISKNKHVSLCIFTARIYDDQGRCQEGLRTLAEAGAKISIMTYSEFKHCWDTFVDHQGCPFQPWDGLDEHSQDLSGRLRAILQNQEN

HEK293 = assay: inhibitors of LMP1-driven NF-kB reporter, dose response, cell-based, HEK293, luciferase, cherry-pick (AID 588343); type: functional; details: Homo sapiens
[8] = molecular target: Hepatocyte nuclear factor 4-alpha (Homo sapiens, UniProt P41235); type: functional, cell-based;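 note: biochemical luminescence-based dose-response counterscreen measuring inhibition of HNF4 dimerization, run alongside a screen for blockers of ABHD5–perilipin-5 interaction; split luciferase complementation of HNF4 fusion proteins in cell lysate measuring dimerization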
Chain of Hepatocyte nuclear factor 4-alpha (P41235 whole entry, the tested form may be a part): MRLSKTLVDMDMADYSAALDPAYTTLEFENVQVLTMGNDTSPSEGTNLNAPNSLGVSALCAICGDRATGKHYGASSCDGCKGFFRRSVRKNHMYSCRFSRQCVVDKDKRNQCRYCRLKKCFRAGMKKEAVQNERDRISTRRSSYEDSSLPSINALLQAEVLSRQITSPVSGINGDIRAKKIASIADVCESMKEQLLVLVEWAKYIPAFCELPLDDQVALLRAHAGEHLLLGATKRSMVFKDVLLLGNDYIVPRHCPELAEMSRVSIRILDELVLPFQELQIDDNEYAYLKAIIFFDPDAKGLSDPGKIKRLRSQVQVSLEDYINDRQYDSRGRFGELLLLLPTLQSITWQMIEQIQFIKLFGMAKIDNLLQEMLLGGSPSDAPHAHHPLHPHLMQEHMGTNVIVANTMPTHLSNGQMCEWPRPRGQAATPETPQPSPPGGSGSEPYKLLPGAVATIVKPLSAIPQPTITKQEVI

[9] = Luminescence Cell-Based Dose Confirmation HTS to Identify Activators of 5'UTR Stem-Loop Driven Alpha-Synuclein mRNA Translation in H4 Neuroglioblastoma Cells. [Related pubchem assays: 1829 (Project Summary), 1814 (Primary HTS)]; type: functional
[10] = Luminescence Cell-Based Dose Response HTS to Identify Activators of Luciferase Translation or Activity in H4 […] Cells. [Related pubchem assays: 1829 (Project Summary), 1814 (Primary HTS)]; type: functional
H4 = assay: Luminescence Cell-Based Dose Response HTS to Identify Activators of 5'UTR Stem-Loop Driven Prion Protein mRNA Translation in H4 Neuroglioblastoma Cells. [Related pubchem assays: 1829 (Project Summary), 1814 (Primary HTS)]; type: functional; details: Homo sapiens
[11] = molecular target: T3, Replicative DNA helicase DnaB (Mycobacterium tuberculosis, UniProt P9WMR3); assay: DnaB intein splicing inhibitors, dose response, biochemical, cell-free fluorescence (AID 449749); type: functional
T3 sequence (P9WMR3 whole entry): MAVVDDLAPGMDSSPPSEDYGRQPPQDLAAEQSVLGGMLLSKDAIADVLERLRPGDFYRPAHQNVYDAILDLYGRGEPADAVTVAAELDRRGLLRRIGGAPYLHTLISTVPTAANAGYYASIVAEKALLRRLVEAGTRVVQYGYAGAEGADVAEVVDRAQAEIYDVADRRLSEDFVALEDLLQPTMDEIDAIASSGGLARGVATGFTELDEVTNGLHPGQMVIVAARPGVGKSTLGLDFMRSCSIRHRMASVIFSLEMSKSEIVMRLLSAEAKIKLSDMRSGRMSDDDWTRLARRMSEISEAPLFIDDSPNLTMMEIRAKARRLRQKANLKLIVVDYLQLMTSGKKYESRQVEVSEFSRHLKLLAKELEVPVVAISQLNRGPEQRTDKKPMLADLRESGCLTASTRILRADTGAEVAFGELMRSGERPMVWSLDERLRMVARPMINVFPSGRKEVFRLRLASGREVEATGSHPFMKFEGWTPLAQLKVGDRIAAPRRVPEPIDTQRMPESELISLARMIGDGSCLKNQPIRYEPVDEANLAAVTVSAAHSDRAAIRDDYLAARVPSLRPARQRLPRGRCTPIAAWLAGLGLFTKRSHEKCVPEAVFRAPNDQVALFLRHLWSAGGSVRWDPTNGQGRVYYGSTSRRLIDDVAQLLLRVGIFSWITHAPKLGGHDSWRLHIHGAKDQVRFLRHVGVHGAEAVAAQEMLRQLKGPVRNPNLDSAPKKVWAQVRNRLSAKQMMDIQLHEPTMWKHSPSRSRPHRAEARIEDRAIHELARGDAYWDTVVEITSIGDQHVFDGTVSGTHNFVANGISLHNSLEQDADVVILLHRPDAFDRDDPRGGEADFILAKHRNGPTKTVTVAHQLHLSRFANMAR

[12] = molecular target: Heat shock protein HSP 90-alpha (Homo sapiens, UniProt P07900); type: functional, organism-based
Protein RecA = molecular target: T4, Protein RecA (Mycobacterium tuberculosis, UniProt P9WHJ3); assay: Fluorescence Cell-Free Homogeneous Dose Retest to Identify Inhibitors of RecA-Intein Splicing Activity. [Related pubchem assays (depositor defined):AID2097, AID2223, AID489010, AID492950]; type: functional
T4 sequence (P9WHJ3 whole entry): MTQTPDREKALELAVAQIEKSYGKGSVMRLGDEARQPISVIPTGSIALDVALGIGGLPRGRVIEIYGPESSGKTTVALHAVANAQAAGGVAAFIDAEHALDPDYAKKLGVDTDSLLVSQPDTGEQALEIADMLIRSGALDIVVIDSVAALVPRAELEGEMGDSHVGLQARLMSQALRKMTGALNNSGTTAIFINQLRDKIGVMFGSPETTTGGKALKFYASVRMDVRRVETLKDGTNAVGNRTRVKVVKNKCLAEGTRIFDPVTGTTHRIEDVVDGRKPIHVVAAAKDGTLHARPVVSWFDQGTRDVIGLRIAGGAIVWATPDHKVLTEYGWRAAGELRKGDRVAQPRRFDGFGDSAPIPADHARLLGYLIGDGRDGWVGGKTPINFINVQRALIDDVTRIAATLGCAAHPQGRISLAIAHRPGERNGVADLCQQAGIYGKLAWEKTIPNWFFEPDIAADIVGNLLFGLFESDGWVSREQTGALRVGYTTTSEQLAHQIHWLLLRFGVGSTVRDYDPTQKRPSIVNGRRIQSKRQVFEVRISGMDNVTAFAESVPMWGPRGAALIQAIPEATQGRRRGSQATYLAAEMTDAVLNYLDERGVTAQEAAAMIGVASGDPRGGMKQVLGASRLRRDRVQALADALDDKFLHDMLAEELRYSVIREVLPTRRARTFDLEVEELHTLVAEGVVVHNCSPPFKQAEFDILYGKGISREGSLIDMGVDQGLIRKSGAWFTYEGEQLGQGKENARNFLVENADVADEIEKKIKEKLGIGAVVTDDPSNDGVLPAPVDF

[13] = Fluorescence-based cell-based high throughput dose response assay for inhibitors of the interaction of nucleotide-binding oligomerization domain containing 2 (NOD2) and the receptor-interacting serine-threonine kinase 2 (RIPK2).; type: functional; details: Homo sapiens
[14] = inhibitors of PGC1a acetylation in cells, dose response, cell-based, cherry-picked samples (AID 720514); type: functional;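 note: potency may reflect raised or lowered acetylation signal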
Protein S100-A4 = Protein S100-A4 (Homo sapiens, UniProt P26447); assay: S100A4-myosin IIA binding inhibitor potency, dose response, biochemical, fluorescence polarization, cherry-picked hits (AID 687001); type: functional
Chain of Protein S100-A4 (P26447 whole entry): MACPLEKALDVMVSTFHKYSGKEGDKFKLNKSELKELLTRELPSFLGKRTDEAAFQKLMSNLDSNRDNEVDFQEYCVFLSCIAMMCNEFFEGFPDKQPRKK

cells = type: functional, cell-based
[15] = molecular target: T5, Nuclear receptor subfamily 0 group B member 1 (Homo sapiens, UniProt P51843); type: functional, cell-based;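 note: HEK293T cells transfected with SF-1 and DAX-1 plus StAR promoter luciferase reporter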
T5 sequence (P51843 whole entry): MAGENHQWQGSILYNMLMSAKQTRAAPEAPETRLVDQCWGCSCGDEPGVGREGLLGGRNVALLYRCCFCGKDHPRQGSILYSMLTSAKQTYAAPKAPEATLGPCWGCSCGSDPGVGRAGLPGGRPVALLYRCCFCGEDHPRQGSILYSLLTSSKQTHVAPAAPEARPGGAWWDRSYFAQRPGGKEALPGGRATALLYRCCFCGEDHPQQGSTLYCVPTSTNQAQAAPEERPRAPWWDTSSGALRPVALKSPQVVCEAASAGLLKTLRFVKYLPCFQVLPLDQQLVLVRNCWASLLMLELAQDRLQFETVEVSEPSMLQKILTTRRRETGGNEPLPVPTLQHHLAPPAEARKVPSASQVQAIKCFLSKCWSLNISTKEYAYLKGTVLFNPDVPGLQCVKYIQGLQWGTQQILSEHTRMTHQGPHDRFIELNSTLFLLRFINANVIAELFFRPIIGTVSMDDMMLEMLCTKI

[16] = molecular target: FAD-linked sulfhydryl oxidase ALR (Homo sapiens, UniProt P55789); assay: inhibitors of human ALR sulfhydryl oxidase, dose response, biochemical, H2O2 detection, luminescence, cherry-pick (AID 493248)
Chain of FAD-linked sulfhydryl oxidase ALR (P55789 whole entry): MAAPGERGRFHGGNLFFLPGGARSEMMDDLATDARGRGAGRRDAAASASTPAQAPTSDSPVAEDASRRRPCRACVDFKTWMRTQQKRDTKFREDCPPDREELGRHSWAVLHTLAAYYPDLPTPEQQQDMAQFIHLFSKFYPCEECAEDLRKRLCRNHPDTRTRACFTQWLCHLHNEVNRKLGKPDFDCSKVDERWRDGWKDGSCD

[17] = molecular target: ATP-binding cassette sub-family B member 6 (Homo sapiens, UniProt Q9NP58); assay: ABCB6 transporter inhibitors, dose response, K562-ABCB6 cells, flow cytometry, cherry pick 1 (AID 623955); type: functional; details: read-out: EC50_MICROM
Chain of ATP-binding cassette sub-family B member 6 (Q9NP58 whole entry): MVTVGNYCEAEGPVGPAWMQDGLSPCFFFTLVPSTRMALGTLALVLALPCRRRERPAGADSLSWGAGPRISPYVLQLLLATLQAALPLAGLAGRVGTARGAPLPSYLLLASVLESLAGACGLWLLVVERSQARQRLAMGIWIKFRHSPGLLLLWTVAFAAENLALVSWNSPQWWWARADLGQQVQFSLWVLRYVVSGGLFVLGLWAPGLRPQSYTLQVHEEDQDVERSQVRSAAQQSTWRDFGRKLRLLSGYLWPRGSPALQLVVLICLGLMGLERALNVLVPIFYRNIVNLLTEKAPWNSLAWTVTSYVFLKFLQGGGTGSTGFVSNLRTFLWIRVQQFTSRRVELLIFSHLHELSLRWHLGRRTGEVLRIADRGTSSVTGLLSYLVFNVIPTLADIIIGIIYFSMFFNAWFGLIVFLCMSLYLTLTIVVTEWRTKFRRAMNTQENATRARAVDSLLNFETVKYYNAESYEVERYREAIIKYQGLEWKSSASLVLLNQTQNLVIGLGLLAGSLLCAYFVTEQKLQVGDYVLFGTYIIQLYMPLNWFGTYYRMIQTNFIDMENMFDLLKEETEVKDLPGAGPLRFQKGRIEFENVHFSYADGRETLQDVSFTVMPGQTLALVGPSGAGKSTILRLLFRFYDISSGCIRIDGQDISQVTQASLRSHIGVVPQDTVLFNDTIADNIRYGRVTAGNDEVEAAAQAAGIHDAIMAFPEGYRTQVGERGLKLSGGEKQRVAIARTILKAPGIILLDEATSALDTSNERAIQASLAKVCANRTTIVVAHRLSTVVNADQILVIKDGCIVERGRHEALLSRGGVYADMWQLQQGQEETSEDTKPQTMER

Chain of Beta-lactamase (Salmonella choleraesuis (strain SC-B67), UniProt Q5J463) (Q5J463 whole entry): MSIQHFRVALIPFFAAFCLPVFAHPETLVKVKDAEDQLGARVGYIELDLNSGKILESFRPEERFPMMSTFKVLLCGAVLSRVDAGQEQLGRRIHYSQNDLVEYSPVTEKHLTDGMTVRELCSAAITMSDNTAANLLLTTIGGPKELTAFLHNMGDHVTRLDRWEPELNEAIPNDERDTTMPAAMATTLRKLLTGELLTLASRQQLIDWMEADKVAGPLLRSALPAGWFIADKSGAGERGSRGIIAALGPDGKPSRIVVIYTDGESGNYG

CC(=C/c1ccccc1)/C=N/n1c(S)nnc1-c1ccncc1
IC50 (Beta-lactamase [1]): > 59.6 µM (inactive) | IC50 (Beta-lactamase [2]): > 59.6 µM (inactive) | IC50 (Beta Lactamase [3]): > 59.6 µM (inactive) | IC50 (Beta-lactamase [4]): > 59.6 µM (inactive) | IC50 (Beta Lactamase [5]): 3.26 µM (active) | IC50 [6]: > 100 µM (inactive) | IC50 [7]: 2.33 µM (active) | AC50 (HEK293): 5.9 µM (active)

CC(C)(C)NC(=O)C(c1ccc(-c2ccccc2)cc1)n1c(=O)c(-c2ccco2)nc2ccccc21 (centres undefined)
IC50 [8]: 1.91 µM (active)

O=c1oc(-c2ccccc2)cc(Cl)c1Cl
EC50 [9]: > 120 µM (not active) | EC50 [10]: > 120 µM (not active) | EC50 (H4): > 60 µM (not active) | AC50 [11]: 10.5 µM (active) | AC50 [12]: 2.64 µM (active) | EC50 (Protein RecA): 4.74 µM (active) | IC50 [13]: 1.15 µM (active) | AC50 [14]: 11.2 µM (active)

Cc1cc(C)c(S(=O)(=O)NCc2ccc3c(c2)cc(C)n3C)c(C)c1
AC50 (Protein S100-A4): 10.7 µM (active)

COc1ccccc1NS(=O)(=O)c1cc(NC(=O)c2ccc(NC(C)=O)cc2)ccc1N1CCOCC1
IC50 (cells): > 67.5 µM (inactive) | IC50 [15]: > 67.5 µM (inactive)

Cc1cccc(CS(=O)(=O)c2ncc(Cl)c(C(=O)Nc3c(C)cccc3C)n2)c1
AC50 [16]: 0.164 µM (active) | AC50 [11]: 4.28 µM (active) | EC50 (Protein RecA): 4.66 µM (active) | EC50 [17]: 74.5 µM (active)
